Measured values taken from PubChem BioAssay AID2060909 (Molecular Pharmacology Branch, DTP, NCI, 2025).
Each block holds one compound with its values, some of them ahead of it.

Tested on: 362531-283-R-J2-PDC complex spheroid viability
Test: Anticancer human tumor 362531-283-R-J2-PDC patient-derived colon adenocarcinoma cell line growth inhibition [RAS]
Conditions: for IC50: curve of first compound; for viability, T/C: stronger effect = lower value
Outline: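 Tumour cells grown as complex spheroids with HUVEC endothelial cells and mesenchymal stem cells, treated with RAS pathway inhibitor combinations. Each agent spans half-log steps from near clinical Cmax, or 10 microM where Cmax is unknown.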

[1] = second compound 0.000949 µM, first compound 0.0316 µM
[2] = second compound 0.000949 µM, first compound 0.1 µM
[3] = second compound 0.000949 µM, first compound 0.316 µM
[4] = second compound 0.000949 µM, first compound 1 µM
[5] = second compound 0.000949 µM, first compound 3.16 µM
[6] = second compound 0.000949 µM, first compound 10 µM
[7] = second compound 0.003 µM, first compound 0.0316 µM
[8] = second compound 0.003 µM, first compound 0.1 µM
[9] = second compound 0.003 µM, first compound 0.316 µM
[10] = second compound 0.003 µM, first compound 1 µM
[11] = second compound 0.003 µM, first compound 3.16 µM
[12] = second compound 0.003 µM, first compound 10 µM
[13] = second compound 0.00949 µM, first compound 0.0316 µM
[14] = second compound 0.00949 µM, first compound 0.1 µM
[15] = second compound 0.00949 µM, first compound 0.316 µM
[16] = second compound 0.00949 µM, first compound 1 µM
[17] = second compound 0.00949 µM, first compound 3.16 µM
[18] = second compound 0.00949 µM, first compound 10 µM
[19] = second compound 0.03 µM, first compound 0.0316 µM
[20] = second compound 0.03 µM, first compound 0.1 µM
[21] = second compound 0.03 µM, first compound 0.316 µM
[22] = second compound 0.03 µM, first compound 1 µM
[23] = second compound 0.03 µM, first compound 3.16 µM
[24] = second compound 0.03 µM, first compound 10 µM
[25] = second compound 0.0949 µM, first compound 0.0316 µM
[26] = second compound 0.0949 µM, first compound 0.1 µM
[27] = second compound 0.0949 µM, first compound 0.316 µM
[28] = second compound 0.0949 µM, first compound 1 µM
[29] = second compound 0.0949 µM, first compound 3.16 µM
[30] = second compound 0.0949 µM, first compound 10 µM
[31] = second compound 0.3 µM, first compound 0.0316 µM
[32] = second compound 0.3 µM, first compound 0.1 µM
[33] = second compound 0.3 µM, first compound 0.316 µM
[34] = second compound 0.3 µM, first compound 1 µM
[35] = second compound 0.3 µM, first compound 3.16 µM
[36] = second compound 0.3 µM, first compound 10 µM
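Also: spheroids exposed to the agents for 7 days before readout.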
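For viability, T/C in this document: luminescence viability as percent of DMSO vehicle control wells.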

IC50 (second compound 0.000949 µM): > 10000 nM | IC50 (second compound 0.003 µM): > 10000 nM | IC50 (second compound 0.00949 µM): > 10000 nM | IC50 (second compound 0.03 µM): > 10000 nM | IC50 (second compound 0.0949 µM): > 10000 nM | IC50 (second compound 0.3 µM): < 31.6 nM
SMILES: CC(C)NCC(C(=O)N1CCN(c2ncnc3c2C(C)CC3O)CC1)c1ccc(Cl)cc1 (stereo unspecified) + CCn1c(-c2cc(N3CCN(C)CC3)cnc2C(C)OC)c2c3cc(ccc31)-c1csc(n1)CC(NC(=O)C1CC1C)C(=O)N1CCCC(N1)C(=O)OCC(C)(C)C2
viability, T/C [1]: 103% | viability, T/C [2]: 103% | viability, T/C [3]: 101% | viability, T/C [4]: 99.5% | viability, T/C [5]: 92.7% | viability, T/C [6]: 89.7% | viability, T/C [7]: 95.6% | viability, T/C [8]: 109% | viability, T/C [9]: 97.8% | viability, T/C [10]: 98.7% | viability, T/C [11]: 106% | viability, T/C [12]: 100% | viability, T/C [13]: 103% | viability, T/C [14]: 110% | viability, T/C [15]: 89.7% | viability, T/C [16]: 99% | viability, T/C [17]: 93.6% | viability, T/C [18]: 93.2% | viability, T/C [19]: 99.4% | viability, T/C [20]: 83.8% | viability, T/C [21]: 84.1% | viability, T/C [22]: 87.8% | viability, T/C [23]: 92.6% | viability, T/C [24]: 85.7% | viability, T/C [25]: 81.8% | viability, T/C [26]: 101% | viability, T/C [27]: 86.1% | viability, T/C [28]: 72.3% | viability, T/C [29]: 76.4% | viability, T/C [30]: 65.4% | viability, T/C [31]: 46.8% | viability, T/C [32]: 53.9% | viability, T/C [33]: 42.6% | viability, T/C [34]: 41.6% | viability, T/C [35]: 31% | viability, T/C [36]: 33.5%

IC50 (second compound 0.000949 µM): > 10000 nM | IC50 (second compound 0.003 µM): 6210 nM | IC50 (second compound 0.00949 µM): > 10000 nM | IC50 (second compound 0.03 µM): 4980 nM | IC50 (second compound 0.0949 µM): > 10000 nM | IC50 (second compound 0.3 µM): > 10000 nM
SMILES: CC1(O)CCCC1n1c(=O)c(C(F)F)cc2cnc(NC3CCN(S(C)(=O)=O)CC3)nc21 (stereo unspecified) + CCn1c(-c2cccnc2C(C)OC)c2c3cc(ccc31)N1CCOC(CC(NC(=O)C(C(C)C)N(C)C(=O)C3(F)CCN(C(=O)C#CC(C)(C)N(C)C)CC3)C(=O)N3CCCC(N3)C(=O)OCC(C)(C)C2)C1
viability, T/C [1]: 97.1% | viability, T/C [2]: 113% | viability, T/C [3]: 92.2% | viability, T/C [4]: 70% | viability, T/C [5]: 55% | viability, T/C [6]: 73.7% | viability, T/C [7]: 102% | viability, T/C [8]: 92.1% | viability, T/C [9]: 89.8% | viability, T/C [10]: 72% | viability, T/C [11]: 57.9% | viability, T/C [12]: 44.6% | viability, T/C [13]: 108% | viability, T/C [14]: 110% | viability, T/C [15]: 84% | viability, T/C [16]: 72.4% | viability, T/C [17]: 50.5% | viability, T/C [18]: 53.9% | viability, T/C [19]: 103% | viability, T/C [20]: 97% | viability, T/C [21]: 77.7% | viability, T/C [22]: 63% | viability, T/C [23]: 63.9% | viability, T/C [24]: 38.9% | viability, T/C [25]: 102% | viability, T/C [26]: 91% | viability, T/C [27]: 94.5% | viability, T/C [28]: 58.9% | viability, T/C [29]: 53.9% | viability, T/C [30]: 54.7% | viability, T/C [31]: 100% | viability, T/C [32]: 87.4% | viability, T/C [33]: 87.7% | viability, T/C [34]: 66% | viability, T/C [35]: 56.9% | viability, T/C [36]: 51.4%

IC50 (second compound 0.00316 µM): 24.6 nM | IC50 (second compound 0.01 µM): 24.2 nM | IC50 (second compound 0.0316 µM): 30.2 nM | IC50 (second compound 0.1 µM): 20.5 nM | IC50 (second compound 0.316 µM): 24.4 nM | IC50 (second compound 1 µM): 23.5 nM
SMILES: CCc1c2c(nc3ccc(O)cc13)-c1cc3c(c(=O)n1C2)COC(=O)[C@]3(O)CC + C=CC(=O)N1CCN(c2nc(OCC3CCCN3C)nc3c(F)c(-c4nc(N)cc(C)c4C(F)(F)F)c(Cl)cc23)C(C)C1
viability, T/C (second compound 0.00316 µM, first compound 0.000949 µM): 89.9% | viability, T/C (second compound 0.00316 µM, first compound 0.003 µM): 104% | viability, T/C (second compound 0.00316 µM, first compound 0.00949 µM): 61.3% | viability, T/C (second compound 0.00316 µM, first compound 0.03 µM): 51.9% | viability, T/C (second compound 0.00316 µM, first compound 0.0949 µM): 31.2% | viability, T/C (second compound 0.00316 µM, first compound 0.3 µM): 26.8% | viability, T/C (second compound 0.01 µM, first compound 0.000949 µM): 95.5% | viability, T/C (second compound 0.01 µM, first compound 0.003 µM): 93.6% | viability, T/C (second compound 0.01 µM, first compound 0.00949 µM): 84.6% | viability, T/C (second compound 0.01 µM, first compound 0.03 µM): 42.4% | viability, T/C (second compound 0.01 µM, first compound 0.0949 µM): 29.5% | viability, T/C (second compound 0.01 µM, first compound 0.3 µM): 35.1% | viability, T/C (second compound 0.0316 µM, first compound 0.000949 µM): 96.2% | viability, T/C (second compound 0.0316 µM, first compound 0.003 µM): 91.8% | viability, T/C (second compound 0.0316 µM, first compound 0.00949 µM): 72.7% | viability, T/C (second compound 0.0316 µM, first compound 0.03 µM): 46.5% | viability, T/C (second compound 0.0316 µM, first compound 0.0949 µM): 37.3% | viability, T/C (second compound 0.0316 µM, first compound 0.3 µM): 20.7% | viability, T/C (second compound 0.1 µM, first compound 0.000949 µM): 111% | viability, T/C (second compound 0.1 µM, first compound 0.003 µM): 101% | viability, T/C (second compound 0.1 µM, first compound 0.00949 µM): 54% | viability, T/C (second compound 0.1 µM, first compound 0.03 µM): 54% | viability, T/C (second compound 0.1 µM, first compound 0.0949 µM): 33% | viability, T/C (second compound 0.1 µM, first compound 0.3 µM): 29.1% | viability, T/C (second compound 0.316 µM, first compound 0.000949 µM): 87.2% | viability, T/C (second compound 0.316 µM, first compound 0.003 µM): 92.4% | viability, T/C (second compound 0.316 µM, first compound 0.00949 µM): 71.5% | viability, T/C (second compound 0.316 µM, first compound 0.03 µM): 43.8% | viability, T/C (second compound 0.316 µM, first compound 0.0949 µM): 37.1% | viability, T/C (second compound 0.316 µM, first compound 0.3 µM): 24.5% | viability, T/C (second compound 1 µM, first compound 0.000949 µM): 99.6% | viability, T/C (second compound 1 µM, first compound 0.003 µM): 87.1% | viability, T/C (second compound 1 µM, first compound 0.00949 µM): 71.9% | viability, T/C (second compound 1 µM, first compound 0.03 µM): 42.3% | viability, T/C (second compound 1 µM, first compound 0.0949 µM): 33.3% | viability, T/C (second compound 1 µM, first compound 0.3 µM): 26.3%
